Measured values taken from patent US10435361B2, “Kinase inhibitors” (Topivert Pharma Limited, priority 2013, dated 2019).

What was measured:
Type in all cases: cell-based
PBMCs [1] = assay: Cell mitosis assay in PBMCs; details: Homo sapiens, PBMC, 5 μg/mL
Experimental: Peripheral blood mononucleocytes (PBMCs) from healthy subjects are separated from whole blood (Quintiles, London, UK) using a density gradient (Histopaque®-1077, Sigma-Aldrich, Poole, UK). The PBMCs (3 million cells per sample) are subsequently treated with 2% PHA (phytohaemagglutinin, Sigma-Aldrich, Poole, UK) for 48 hr, followed by a 20 hr exposure to varying concentrations of test compounds. At 2 hr before collection, PBMCs are treated with demecolcine (0.1 μg/mL; Invitrogen, Paisley, UK) to arrest cells in metaphase. To observe mitotic cells, PBMCs are permeabilised and fixed by adding Intraprep (50 μL; Beckman Coulter, France), and stained with anti-phospho-histone 3 (0.26 ng/L; #9701; Cell Signalling, Danvers, Mass.) and propidium iodide (1 mg/mL; Sigma-Aldrich, Poole, UK) as previously described (Muehlbauer P. A. and Schuler M. J., Mutation Research, 2003, 537:117-130). Fluorescence is observed using an ATTUNE flow cytometer (Invitrogen, Paisley, UK), gating for lymphocytes.

PBMCs [2] = assay: IL-2 and IFN gamma release in CD3/CD28 stimulated PBMC cells; details: Homo sapiens, assay (c)
Experimental: PBMCs from healthy subjects are separated from whole blood using a density gradient (Lymphoprep, Axis-Shield Healthcare). Cells are added to a 96 well plate pre-coated with a mixture of CD3/CD28 monoclonal antibodies (0.3 μg/mL eBioscience and 3 μg/mL BD Pharmingen respectively). Compound at the desired concentration is then added to the wells and the plate left for 3 days under normal tissue culture conditions. […] The IC50 is determined from the dose response curve.

PBMCs [3] = assay: LPS-induced TNFα/IL-8 release in PBMC cells; details: Homo sapiens, assay (b), read-out: IC50 Values for Inhibition of Cytokine Release PBMCs IL-8
Summary of the method: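 Healthy-donor PBMCs isolated by density gradient were pretreated with compound for 2 h, then stimulated with 1 ng/mL LPS (E. coli 0111:B4) for 24 h at 37° C., 5% CO2. IL-8 and TNFα in supernatants measured by sandwich ELISA.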

[4] = read-out: IC50 Values for Inhibition of Cytokine Release PBMCs IFNγ
[5] = read-out: IC50 Values for Inhibition of Cytokine Release PBMCs IL-2

| SMILES | inhibition at 5 µg/mL (PBMCs [1]) | IC50 (PBMCs [2]; [4]) | IC50 (PBMCs [2]; [5]) | IC50 (PBMCs [3]) |
| --- | --- | --- | --- | --- |
| COc1cc(Nc2cc(Oc3ccc(NC(=O)Nc4cc(C(C)(C)C)cc(NS(C)(=O)=O)c4OC)c4ccccc34)ccn2)cc(C(=O)NCC(=O)N2CCOCC2)c1 [85(a), 3-[[4-[[4-[[5-tert-Butyl-3-(methanesulfonamido)-2-methoxyphenyl]-carbamoylamino]-1-naphthyl]oxy]-2-pyridyl]amino]-5-methoxy-N-(2-morpholino-2-oxo-ethyl)benzamide] | 46.3% | 11.8 nM | 53.8 nM | 0.8 nM |
| C#Cc1cc(Nc2cc(Oc3ccc(NC(=O)Nc4cc(C(C)(C)C)cc(CO)c4OC)c4ccccc34)ccn2)cc(C(=O)NCCOCCOCCOC)c1 [85(b), 3-[[4-[[4-[[5-tert-Butyl-3-(hydroxymethyl)-2-methoxyphenyl]-carbamoylamino]-1-naphthyl]oxy]-2-pyridyl]amino]-5-ethynyl-N-[2-[2-(2-methoxyethoxy)ethoxy]ethyl]benzamide] | 25.3% | 16.2 nM | 123 nM | 1.5 nM |
| C#Cc1cc(Nc2cc(Oc3ccc(NC(=O)Nc4cc(C(C)(C)C)cc(NS(C)(=O)=O)c4OC)c4ccccc34)ccn2)cc(C(=O)NCCCN2CCOCC2)c1 [85(d), 3-[[4-[[4-[[5-tert-Butyl-3-(methanesulfonamido)-2-methoxyphenyl]-carbamoylamino]-1-naphthyl]oxy]-2-pyridyl]amino]-5-ethynyl-N-(3-morpholinopropyl)-benzamide] | 33.2% | 15.4 nM | 94.3 nM | 2.1 nM |
| COc1cc(Nc2cc(Oc3ccc(NC(=O)Nc4cc(C(C)(C)C)cc(NS(C)(=O)=O)c4OC)c4ccccc34)ccn2)cc(C(=O)NCC(C)(C)N2CCOCC2)c1 [85(h), 3-[[4-[[4-[[5-tert-Butyl-3-(methanesulfonamido)-2-methoxyphenyl]-carbamoylamino]-1-naphthyl]oxy]-2-pyridyl]amino]-5-methoxy-N-(2-methyl-2-morpholinopropyl)benzamide] | 27.5% | 23 nM | 150 nM | 2.2 nM |
| COc1cc(Nc2cc(Oc3ccc(NC(=O)Nc4cc(C(C)(C)C)cc(NS(C)(=O)=O)c4OC)c4ccccc34)ccn2)cc(C(=O)NCCN2CCS(=O)(=O)CC2)c1 [85(k), 3-[[4-[[4-[[5-tert-Butyl-3-(methanesulfonamido)-2-methoxyphenyl]-carbamoylamino]-1-naphthyl]oxy]-2-pyridyl]amino]-N-[2-(1,1-dioxo-1,4-thiazinan-4-yl)ethyl]-5-methoxybenzamide] | 41% | 9.3 nM | 57.1 nM | 1.7 nM |
| C#Cc1cc(Nc2nccc(Oc3ccc(NC(=O)Nc4cc(C(C)(C)C)cc(NS(C)(=O)=O)c4OC)c4ccccc34)n2)cc(C(=O)NCCN2CCOCC2)c1 [Example 1, 3-((4-((4-(3-(5-(tert-Butyl)-2-methoxy-3-(methylsulfonamido)phenyl)ureido)naphthalen-1-yl)oxy)pyrimidin-2-yl)amino)-5-ethynyl-N-(2-morpholinoethyl)benzamide] | 22.1% | 10.4 nM | 112 nM | 1.4 nM |
| C#Cc1cc(Nc2nccc(Oc3ccc(NC(=O)Nc4cc(F)cc(N5CCOCC5)c4)c4ccccc34)n2)cc(C(=O)NCCN2CCOCC2)c1 [Example 2, 3-Ethynyl-5-((4-((4-(3-(3-fluoro-5-morpholinophenyl)ureido)naphthalen-1-yl)oxy)-pyrimidin-2-yl)amino)-N-(2-morpholinoethyl)benzamide] | 4% | 35.7 nM |  | 142 nM |
| COc1cc(Nc2nccc(Oc3ccc(NC(=O)Nc4cc(C(C)(C)C)cc(NS(C)(=O)=O)c4OC)c4ccccc34)n2)cc(C(=O)NCCN2CCOCC2)c1 [Example 6, 3-((4-((4-(3-(5-(tert-Butyl)-2-methoxy-3-(methylsulfonamido)phenyl)ureido)naphthalen-1-yl)oxy)pyrimidin-2-yl)amino)-5-methoxy-N-(2-morpholinoethyl)benzamide] | 41.7% | 9.3 nM | 89.9 nM | 0.8 nM |
| CNC(=O)c1cc(C(C)(C)C)cc(NC(=O)Nc2ccc(Oc3ccnc(Nc4cc(OC)cc(OCCOCCOCCOC)c4)n3)c3ccccc23)c1OC [Example 13, 5-(tert-Butyl)-2-methoxy-3-(3-(4-((2-((3-methoxy-5-(2-(2-(2-methoxyethoxy)ethoxy)-ethoxy)phenyl)amino)pyrimidin-4-yl)oxy)naphthalen-1-yl)ureido)-N-methylbenzamide] | 46.1% | 4.6 nM | 57.4 nM | 1.3 nM |
| COCCOCCOCCOc1cc(Nc2nccc(Oc3ccc(NC(=O)Nc4cc(C(C)(C)C)cc(C(N)=O)c4OC)c4ccccc34)n2)cc(OC)c1 [Example 20, 5-(tert-Butyl)-2-methoxy-3-(3-(4-((2-((3-methoxy-5-(2-(2-(2-methoxyethoxy)ethoxy)-ethoxy)phenyl)amino)pyrimidin-4-yl)oxy)naphthalen-1-yl)ureido)benzamide] | 44.3% | 9 nM | 84.3 nM | 1.1 nM |
| COCCOCCOCCOc1cc(Nc2nccc(Oc3ccc(NC(=O)Nc4cc(NS(C)(=O)=O)cc(C(C)(C)C)c4)c4ccccc34)n2)cc(OC)c1 [Example 24, N-(3-(tert-Butyl)-5-(3-(4-((2-((3-methoxy-5-(2-(2-(2-methoxyethoxy)ethoxy)ethoxy)-phenyl)amino)pyrimidin-4-yl)oxy)naphthalen-1-yl)ureido)phenyl)methanesulfonamide] | 22.5% | 10.7 nM | 24.9 nM | 1.9 nM |
| COCCOCCOCCOc1cc(Nc2nccc(Oc3ccc(NC(=O)Nc4cc(C(C)(C)C)cc(C(=O)NCCO)c4OC)c4ccccc34)n2)cc(OC)c1 [Example 35, 5-(tert-Butyl)-N-(2-hydroxyethyl)-2-methoxy-3-(3-(4-((2-((3-methoxy-5-(2-(2-(2-methoxy-ethoxy)ethoxy)ethoxy)phenyl)amino)pyrimidin-4-yl)oxy)naphthalen-1-yl)ureido)-benzamide] | 41.1% | 3.5 nM | 51 nM | 1.4 nM |
| COCCOCCOCCOc1cc(Nc2nccc(Oc3ccc(NC(=O)Nc4cc(C(C)(C)C)cc(C(=O)NCCN(C)C)c4OC)c4ccccc34)n2)cc(OC)c1 [Example 46, 5-(tert-Butyl)-N-(2-(dimethylamino)ethyl)-2-methoxy-3-(3-(4-((2-((3-methoxy-5-(2-(2-(2-methoxyethoxy)ethoxy)ethoxy)phenyl)amino)pyrimidin-4-yl)oxy)naphthalen-1-yl)ureido)-benzamide] | 67.1% | 2 nM |  | 0.9 nM |
| COc1cc(Nc2cc(Oc3ccc(NC(=O)Nc4cc(C(C)(C)C)cc(C(N)=O)c4OC)c4ccccc34)ccn2)cc(C(=O)NCCN2CCOCC2)c1 [Example 47, 3-((4-((4-(3-(5-(tert-Butyl)-3-carbamoyl-2-methoxyphenyl)ureido)naphthalen-1-yl)oxy)pyridin-2-yl)amino)-5-methoxy-N-(2-morpholinoethyl)benzamide] | 59.1% | 7.3 nM | 102 nM | 1.6 nM |
| C#Cc1cc(Nc2cc(Oc3ccc(NC(=O)Nc4cc(C(C)(C)C)cc(NS(C)(=O)=O)c4OC)c4ccccc34)ccn2)cc(C(=O)NCCOCCOCCOC)c1 [Example 54, 3-((4-((4-(3-(5-(tert-Butyl)-2-methoxy-3-(methylsulfonamido)phenyl)ureido)naphthalen-1-yl)oxy)pyridin-2-yl)amino)-5-ethynyl-N-(2-(2-(2-methoxyethoxy)ethoxy)ethyl)benzamide] | 37.8% | 33.3 nM | 354 nM | 1.6 nM |
| COCCOCCOCCOc1cc(Nc2nccc(Oc3ccc(NC(=O)Nc4cc(C(C)(C)C)cc(-c5nnco5)c4OC)c4ccccc34)n2)cc(OC)c1 [Example 59, 1-(5-(tert-Butyl)-2-methoxy-3-(1,3,4-oxadiazol-2-yl)phenyl)-3-(4-((2-((3-methoxy-5-(2-(2-(2-methoxyethoxy)ethoxy)ethoxy)phenyl)amino)pyrimidin-4-yl)oxy)naphthalen-1-yl)urea] | 55.3% | 7.6 nM | 58.6 nM | 3.3 nM |
| C#Cc1cc(Nc2cc(Oc3ccc(NC(=O)Nc4cc(C(C)(C)C)cc(NS(C)(=O)=O)c4OC)c4ccccc34)ccn2)cc(C(=O)N[C@@H](C)COCCOCCOC)c1 [Example 67, (S)-3-((4-((4-(3-(5-(tert-Butyl)-2-methoxy-3-(methylsulfonamido)phenyl)ureido)-naphthalen-1-yl)oxy)pyridin-2-yl)amino)-5-ethynyl-N-(1-(2-(2-methoxyethoxy)ethoxy)-propan-2-yl)benzamide] | 35.6% | 39.5 nM | 200 nM | 2.7 nM |
